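Exposure lasted 48 hours, with cells grown in 96-well plates and compounds tested at five concentrations. GI50 = concentration required for 50% inhibition of growth.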 Calls of active or inactive are those of the source. No stated cut-off is given here; in the data, active = GI50 up to about 1.1 µM and inactive = higher.
Tests used:
Experiment in all cases: NCI tumour cell line growth inhibition, 48 h
[1] = system: 786-0
[2] = system: U-251
[3] = system: OVCAR-4
[4] = system: KM12
[5] = system: SR
[6] = system: HT-29
[7] = system: HCT-15
[8] = system: SK-OV-3
[9] = system: K562
[10] = system: NCI-H460
[11] = system: SW-620
[12] = system: HL-60
[13] = system: NCI-H226
[14] = system: SF-295
[15] = system: CCRF-CEM
[16] = system: Malme-3M
[17] = system: NCI-H522

Measured: GI50

CC1OC(n2cc(F)c(=O)[nH]c2=O)C=CC1=O (centres undefined)
inactive: [1] 15.9 µM | [2] 14.8 µM | [3] 18.1 µM | [4] 17.7 µM | [5] 21.5 µM | [6] 23 µM | [8] 29 µM | [9] 31 µM | [10] 21.6 µM | [11] 18.8 µM | [12] 17.9 µM | [13] 24.7 µM | [14] 17.3 µM | [15] 13.8 µM | [16] 18.7 µM | [17] 9.38 µM
20.3 µM: [7]

C=CCCOC(=O)CO[N+](=O)[O-]
> 100 µM: [7]
inactive: [1] > 100 µM | [2] > 100 µM | [3] > 100 µM | [4] > 100 µM | [5] > 100 µM | [6] > 100 µM | [8] > 100 µM | [9] > 100 µM | [10] > 100 µM | [11] > 100 µM | [12] 23.2 µM | [13] > 100 µM | [14] > 100 µM | [15] > 100 µM | [16] > 100 µM | [17] > 100 µM

CO/N=C/c1cc(OC)c(OC)c(OC)c1
> 100 µM: [7]
inactive: [1] > 100 µM | [2] > 100 µM | [3] > 100 µM | [4] > 100 µM | [5] > 100 µM | [6] > 100 µM | [8] > 100 µM | [9] > 100 µM | [10] > 100 µM | [11] > 100 µM | [12] > 100 µM | [13] > 100 µM | [14] > 100 µM | [15] > 100 µM | [16] > 100 µM | [17] > 100 µM

CC(N)Cc1ccc(F)cc1 (centres undefined)
> 100 µM: [7]
inactive: [1] > 100 µM | [2] > 100 µM | [3] > 100 µM | [4] > 100 µM | [5] > 100 µM | [6] > 100 µM | [8] > 100 µM | [9] > 100 µM | [10] > 100 µM | [11] > 100 µM | [12] > 100 µM | [13] > 100 µM | [14] > 100 µM | [15] > 100 µM | [16] > 100 µM | [17] > 100 µM

CCOC(=O)[C@H](Cc1ccccc1)NC(=O)c1nc[nH]c1[N+](=O)[O-]
> 100 µM: [7]
inactive: [1] > 100 µM | [2] > 100 µM | [3] > 100 µM | [4] > 100 µM | [5] > 100 µM | [6] > 100 µM | [8] > 100 µM | [9] > 100 µM | [10] > 100 µM | [11] > 100 µM | [12] > 100 µM | [13] > 100 µM | [14] > 100 µM | [15] > 100 µM | [16] > 100 µM | [17] > 100 µM

CCC1=CCN(c2cc(C)ccn2)OC1c1ccccc1 (centres undefined)
21.8 µM: [7]
inactive: [1] 45.9 µM | [2] 22.8 µM | [3] 59.8 µM | [4] 30.9 µM | [5] 21.1 µM | [6] 29.3 µM | [8] 71.3 µM | [9] 47.4 µM | [10] 38.4 µM | [11] 32.2 µM | [12] 18.3 µM | [13] > 100 µM | [14] 39.3 µM | [15] 35.7 µM | [16] 26.5 µM | [17] 18.5 µM

NC(=O)COc1ccccc1
> 100 µM: [7]
inactive: [1] > 100 µM | [2] > 100 µM | [3] > 100 µM | [4] > 100 µM | [5] > 100 µM | [6] > 100 µM | [8] > 100 µM | [9] > 100 µM | [10] > 100 µM | [11] > 100 µM | [12] > 100 µM | [13] > 100 µM | [14] > 100 µM | [15] > 100 µM | [16] > 100 µM | [17] > 100 µM

From ChEMBL document CHEMBL1201862, “PubChem BioAssay data set” (2004)
